Laboratory results: publication PMC8880564, “Design, Synthesis, and Biological Evaluation of a Novel VEGFR-2 Inhibitor Based on a 1,2,5-Oxadiazole-2-Oxide Scaffold with MAPK Signaling Pathway Inhibition” (Pharmaceuticals, 2022)

Tests used:
Assay type in all cases: cell-based
[1] = tested on: EKVX; assay: NCI-60 one-dose SRB screening; details: Homo sapiens, Non-Small Cell Lung Cancer, 10 µM one dose, 48 h, read-out: growth percentage
[2] = tested on: HL-60(TB); assay: NCI-60 one-dose SRB screening; details: Homo sapiens, Leukemia, 10 µM one dose, 48 h, read-out: growth percentage
[3] = tested on: KM12; assay: NCI-60 one-dose SRB screening; details: Homo sapiens, KM12, Colon Cancer, 10 µM one dose, 48 h, read-out: growth percentage
[4] = tested on: DU-145; assay: NCI-60 one-dose SRB screening; details: Homo sapiens, DU-145, Prostate Cancer, 10 µM one dose, 48 h, read-out: growth percentage
[5] = tested on: LOX IMVI; assay: NCI-60 one-dose SRB screening; details: Homo sapiens, Melanoma, 10 µM one dose, 48 h, read-out: growth percentage
[6] = tested on: ACHN; assay: NCI-60 one-dose SRB screening; details: Homo sapiens, Renal Cancer, 10 µM one dose, 48 h, read-out: growth percentage
[7] = tested on: SK-MEL-5; assay: NCI-60 one-dose SRB screening; details: Homo sapiens, SK-MEL-5, Melanoma, 10 µM one dose, 48 h, read-out: growth percentage
[8] = tested on: SN12C; assay: NCI-60 one-dose SRB screening; details: Homo sapiens, Renal Cancer, 10 µM one dose, 48 h, read-out: growth percentage
[9] = tested on: HOP-92; assay: NCI-60 one-dose SRB screening; details: Homo sapiens, HOP-92, Non-Small Cell Lung Cancer, 10 µM one dose, 48 h, read-out: growth percentage
[10] = tested on: MDA-MB-468; assay: NCI-60 one-dose SRB screening; details: Homo sapiens, MDA-MB-468, Breast Cancer, 10 µM one dose, 48 h, read-out: growth percentage
[11] = tested on: CCRF-CEM; assay: NCI-60 one-dose SRB screening; details: Homo sapiens, Leukemia, 10 µM one dose, 48 h, read-out: growth percentage
[12] = tested on: SK-MEL-28; assay: NCI-60 one-dose SRB screening; details: Homo sapiens, SK-MEL-28, Melanoma, 10 µM one dose, 48 h, read-out: growth percentage
[13] = tested on: SK-OV-3; assay: NCI-60 one-dose SRB screening; details: Homo sapiens, SK-OV-3, Ovarian Cancer, 10 µM one dose, 48 h, read-out: growth percentage
[14] = tested on: NCI-H322M; assay: NCI-60 one-dose SRB screening; details: Homo sapiens, Non-Small Cell Lung Cancer, 10 µM one dose, 48 h, read-out: growth percentage
[15] = tested on: HCT-15; assay: NCI-60 one-dose SRB screening; details: Homo sapiens, HCT-15, Colon Cancer, 10 µM one dose, 48 h, read-out: growth percentage
[16] = tested on: NCI-59 human cancer cell lines; assay: NCI-60 one-dose SRB screening, full panel and subpanels; details: for activity at 10 µM: mean over the full panel, 10 µM one dose, 48 h, SRB, read-out: growth percentage, Mean
Protocol: The structures of the synthesized compounds 6a–h, 12a–c, 11, 13a–c, and 14a–c were submitted to the National Cancer Institute’s Developmental Therapeutics Program (NCI-DTP), and all of them were selected for preliminary in vitro anticancer activity screening against NCI-59 human cancer cell lines at a concentration of 10 µM, using the sulforhodamine B (SRB) assay to determine the growth percentage and cell viability.
The in vitro NCI-60 cell line screening assay was conducted at the National Cancer Institute (NCI), Bethesda, USA against 59 cancer cell lines representing 9 types of cancers, as reported earlier. Briefly, the human cancer cell lines were grown in RPMI 1640 medium containing 5% fetal bovine serum and 2 mM L-glutamine and inoculated into 96-well microtiter plates in 100 μL (5000 to 40,000 cells/well). Then, the plates were incubated at 37 °C, 5% CO2, 95% air, and 100% relative humidity for 24 h. After that, two plates of each cell line were fixed in situ with TCA, to represent cell population at time zero (Tz). The tested compounds were dissolved in DMSO at 400-fold and added so that the final concentration became 10 μM. The plates were then incubated for an additional 48 h followed by the addition of cold TCA to terminate the assay in case of adherent cells. Then, the cells were fixed in situ by cold 50% (w/v) TCA (50 μL; final concentration, 10% TCA) and incubated for 1 h at 4 °C. After discarding the supernatant, the plates were washed 5 times with tap water and air dried. Sulforhodamine B (SRB) solution (100 μL) at 0.4% (w/v) in 1% HOAc was added to each well, and plates were incubated for 10 min. at rt. Then, washing with 1% acetic acid was conducted 5 times to remove the unbound dye followed by air drying. After that, 10 mM trizma base was added to solubilize the bound stain, and the absorbance was read on an automated plate reader at a wavelength of 515 nm. On the other hand, the methodology for suspension cells was the same except that 50 μL of 80% TCA (final concentration, 16% TCA) was gently added to terminate the assay by fixing settled cells at the bottom of the wells. Percentage growth inhibition (GI%) was calculated as follows:
Growth percentage=Ti (test growth in the presence of compound at 10 µM )−Tz (time zero)/C (control growth)−Tz (time zero)×100 for Ti ≥ Tz;
Growth percentage=Ti (test growth in the presence of compound at 10 µM )−Tz (time zero)/Tz (time zero)×100 for Ti < Tz.
where values of 100, 40, 0, −40, and −100 mean no GI, 60% GI, no net G, 40% lethality, and all cells are dead, respectively.
Data are expressed as a one-dose mean graph of growth percentages including the mean, delta, and range.

Structure (SMILES) | activity at 10 µM [1] | activity at 10 µM [2] | activity at 10 µM [3] | activity at 10 µM [4] | activity at 10 µM [5] | activity at 10 µM [6] | activity at 10 µM [7] | activity at 10 µM [8] | activity at 10 µM [9] | activity at 10 µM [10] | activity at 10 µM [11] | activity at 10 µM [12] | activity at 10 µM [13] | activity at 10 µM [14] | activity at 10 µM [15] | activity at 10 µM ([16]; Homo sapiens) | mean growth inhibition % (MGI%, GI%) ([16]; full NCI-59 panel, 10 µM) | enhancement of the growth percentage (mean) ([16]; full NCI-59 panel, 10 µM) | inhibition at 10 µM ([16]; Homo sapiens, full NCI-59 panel, 10 µM, read-out: mean growth inhibition % (MGI%, GI%))
O=c1[nH]c(CCl)nc2c1cnn2-c1ccccc1 [13a] | 100% | 109% | 101% | 98.6% | 103% | 96.7% | 107% | 99.8% | 101% | 96.6% | 101% | -89.8% | 106% | 101% | 99.9% | 94.2% |  |  | 
Cc1nn(-c2ccc(Br)cc2)c2nc(C(F)(F)F)nc(Nc3ccc(NCc4c(-c5ccccc5)no[n+]4[O-])cc3)c12 [12c, 3-(((4-((1-(4-bromophenyl)-3-methyl-6-(trifluoromethyl)-1H-pyrazolo[3,4-d]pyrimidin-4-yl)amino)phenyl)amino)methyl)-4-phenyl-1,2,5-oxadiazole 2-oxide] | 71.1% | 83.2% | 74.3% | 84.8% | 48.5% | 68.1% | 61.7% | 76.2% | 82.3% | 84.2% | 60.4% | 89.5% | 82.7% | 85.1% | 34.6% | 74.8% |  |  | 
[O-][n+]1onc(-c2ccccc2)c1COc1ccc(Nc2ncnc3c2cnn3-c2ccccc2)cc1 [6a, 4-phenyl-3-((4-((1-phenyl-1H-pyrazolo[3,4-d]pyrimidin-4-yl)amino)phenoxy)methyl)-1,2,5-oxadiazole 2-oxide] | 98.9% | 94.7% | 103% | 107% | 94.3% | 105% | 102% | 97.3% | 115% | 107% | 91% | 104% | 102% | 109% | 54.2% | 100% | no mean growth inhibition percentage |  | 
[O-][n+]1onc(-c2ccccc2)c1COc1ccc(Nc2ncnc3c2cnn3-c2ccc(Br)cc2)cc1 [6e, 3-((4-((1-(4-bromophenyl)-1H-pyrazolo[3,4-d]pyrimidin-4-yl)amino)phenoxy)methyl)-4-phenyl-1,2,5-oxadiazole 2-oxide] | 96.3% | 96.1% | 103% | 107% | 111% | 103% | 95.9% | 96.4% | 109% | 106% | 108% | 99.3% | 104% | 97.9% | 94.9% | 101% |  | 1–5% | 
Cc1nn(-c2ccc(Br)cc2)c2nc(CCl)[nH]c(=O)c12 [13c] | 99.5% |  | 83.6% | 110% | 98.5% | 94.8% | 103% | 100% | 101% | 94% | 83.7% | 99.9% | 104% | 104% | 103% | 88.3% |  |  | 
Cc1nc(Nc2ccc(OCc3c(-c4ccccc4)no[n+]3[O-])cc2)c2c(C)nn(-c3ccc(Br)cc3)c2n1 [6h, 3-((4-((1-(4-bromophenyl)-3,6-dimethyl-1H-pyrazolo[3,4-d]pyrimidin-4-yl)amino)phenoxy)methyl)-4-phenyl-1,2,5-oxadiazole 2-oxide] | 92.3% | 70.8% | 97.7% | 102% | 98.9% | 98.7% | 91.5% | 96.4% | 94.6% | 116% | 103% | 101% | 109% | 94.4% | 79% | 95.4% |  |  | 1.58 to 4.57%
Cc1nc(Nc2ccc(OCc3c(-c4ccccc4)no[n+]3[O-])cc2)c2c(C)nn(-c3ccccc3)c2n1 [6d, 3-((4-((3,6-dimethyl-1-phenyl-1H-pyrazolo[3,4-d]pyrimidin-4-yl)amino)phenoxy)methyl)-4-phenyl-1,2,5-oxadiazole 2-oxide] | 102% | 111% | 104% | 112% | 96.6% | 95.5% | 98% | 98.4% | 104% | 107% | 113% | 102% | 109% | 99.9% | 104% | 105% |  | 1–5% | 
Cc1nc(Nc2ccc(OCc3c(-c4ccccc4)no[n+]3[O-])cc2)c2cnn(-c3ccc(Br)cc3)c2n1 [6f, 3-((4-((1-(4-bromophenyl)-6-methyl-1H-pyrazolo[3,4-d]pyrimidin-4-yl)amino)phenoxy)methyl)-4-phenyl-1,2,5-oxadiazole 2-oxide] | 91.4% | 100% | 101% | 104% | 105% | 101% | 99.7% | 94.8% | 111% | 111% | 104% | 103% | 113% | 90.8% | 98.1% | 99.7% | no mean growth inhibition percentage |  | 
Cc1nn(-c2ccccc2)c2nc(CCl)[nH]c(=O)c12 [13b] | 99.2% | 33.1% | 53.3% | 83.6% | 101% | 90.2% | 110% | 95.7% | 117% | 26.6% |  | 105% | 105% | 103% | 90.6% | 82.8% |  |  | 
